Tests used:
IL-6 = assay: In vivo cytokine production: IL-6 in peritoneal lavage of LPS-primed mice by ELISA; settings: LPS-primed mice subsequently challenged with ATP; 4 hour time point
Method: Groups of mice are injected intraperitoneally (ip) with 1 μg of LPS. […] Samples of peritoneal lavages are spun down, and the supernatants are collected and tested for the presence of IL-1β and IL-6 using ELISAs (Amersham Life Sciences, Arlington Heights, Va. and Endogen, Woburn, Mass., respectively).
IL-1 signaling may lead to the production of other cytokines such as IL-6 (Allen et al. (2000), J. Exp. Med. 191:859-869). […] The animals are incubated for an additional period (e.g., 4 hours) and peritoneal lavages are collected several times during the course of the incubation and analyzed for cytokines by ELISA. […] By 4 hours, however, IL-6 levels recovered from the LPS-PBS treated animals returned to baseline.

other P2X receptors = settings: cited from earlier work
P2X7 receptor = biological target: T1, P2X7 receptor (Mus musculus, UniProt Q9Z1M0); assay: P2X7 receptor-mediated YoPro Yellow uptake in peritoneal macrophages; type: cell-based; settings: peritoneal macrophages from wild-type animals, 5 mM ATP, extracellular YoPro Yellow
T1 construct: endogenous in cells; host or cells: peritoneal macrophages isolated from wild-type animals
T1 sequence (Q9Z1M0 1-595): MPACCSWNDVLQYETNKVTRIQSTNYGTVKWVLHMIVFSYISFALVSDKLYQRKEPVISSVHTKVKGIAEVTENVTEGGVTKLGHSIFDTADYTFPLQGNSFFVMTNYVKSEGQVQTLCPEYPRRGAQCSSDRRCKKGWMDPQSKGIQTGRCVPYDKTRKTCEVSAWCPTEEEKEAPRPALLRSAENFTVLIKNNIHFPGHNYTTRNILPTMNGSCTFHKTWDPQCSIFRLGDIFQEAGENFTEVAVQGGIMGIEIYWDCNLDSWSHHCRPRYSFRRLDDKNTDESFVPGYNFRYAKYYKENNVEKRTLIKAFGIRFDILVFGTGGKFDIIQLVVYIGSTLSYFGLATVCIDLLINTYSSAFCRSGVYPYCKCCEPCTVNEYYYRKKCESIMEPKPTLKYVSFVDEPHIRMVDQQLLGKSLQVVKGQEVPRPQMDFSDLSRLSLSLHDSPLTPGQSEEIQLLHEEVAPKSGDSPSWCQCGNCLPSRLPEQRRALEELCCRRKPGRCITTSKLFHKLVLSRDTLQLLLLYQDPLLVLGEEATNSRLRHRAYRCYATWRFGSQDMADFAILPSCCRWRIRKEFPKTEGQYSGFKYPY
Method: This increase in fluorescence results from internalization of the dye molecules followed by their binding to DNA; when bound to DNA, the fluorescence intensity increases.
When assaying P2X7 receptor function using isolated macrophages, the peritoneal macrophages are washed with isotonic medium (15 mM HEPES, pH 7.2, 135 mM NaCl, 5 mM KCl, […], […]) by centrifugation and the resulting cell pellet is suspended in isotonic medium to achieve a final cell concentration of about 1×10^6 cells/ml. Fifty μl of this cell suspension is placed into the wells of a plate (e.g., Microfluor “B” U-bottom plate, Dynatech, Chantilly, Va.), and 50 μl of a fluorescent dye (e.g., 2 μM YoPro Yellow, Molecular Probes, Eugene, Oreg.) dissolved in the isotonic medium is added to each well. Test compounds or control vehicles are added to the wells with or without the addition of […]. Fluorescence is monitored as a function of time at […]. For YoPro Yellow dye, excitation is at 450 nm and emission is measured at 530 nm. Test compounds which stimulate P2X7 receptor activity increase fluorescence as compared to control samples that lack test compound.

Nc1ncnc2c1ncn2[C@@H]1O[C@H](COP(=O)(O)OP(=O)(O)OP(=O)(O)O)[C@@H](O)[C@H]1O [ATP, adenosine triphosphate]
lavage fluid IL-6, peak value (IL-6): > 25 ng/mL
ATP concentrations at which receptors activate (other P2X receptors): less than or equal to 100 μM
fluorescence intensity (YoPro Yellow internalization) (P2X7 receptor): time dependent increase in fluorescence intensity

From US20050054013A1, “Methods and products for identifying modulators of P2X7 receptor activity, and their use in the treatment of skeletal disorders” (Pfizer Inc, priority 2001, published 2005)
